What was measured:
Assay in all cases: relative viability (nuclei count vs DMSO), 5 days (fraction); higher = more cells survive
[1] = system: NCI-H460
Summary of the method: (§1)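 Relative viability divides the nuclei count in treated wells by that in vehicle wells. Lung cancer cell lines were seeded in 1536-well plates, dosed by pin tool the next day, and fixed and stained after 5 days in one step with final 0.05% Triton X-100, 1% formaldehyde and 1 ug/ml Hoechst. Dosing was a single drug or a fixed anchor-drug dose plus five library-drug doses (not always all listed) in √10 steps, and values are medians of duplicate plates imaged at 4×.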

[2] = system: LK-2
Summary of the method: as §1

[3] = system: LU99A
Summary of the method: as §1

[4] = system: NCI-H1793
Summary of the method: as §1

[5] = system: NCI-H2347
Summary of the method: as §1

[6] = system: COR-L23
Summary of the method: as §1

[7] = system: PC-14
Summary of the method: as §1

[8] = system: A-427
Summary of the method: as §1

[9] = system: SW 900
Summary of the method: as §1

[10] = system: SW 1573
Summary of the method: as §1

[11] = system: LCLC-103H
Summary of the method: as §1

[12] = system: NCI-H596
Summary of the method: as §1

[13] = system: LCLC-97TM1
Summary of the method: as §1

[14] = system: 201T
Summary of the method: as §1

[15] = system: H3255
Summary of the method: as §1

[16] = system: LC-2-ad
Summary of the method: as §1

[17] = system: NCI-H1650
Summary of the method: as §1

[18] = system: NCI-H23
Summary of the method: as §1

[19] = system: NCI-H727
Summary of the method: as §1

[20] = system: HCC-44
Summary of the method: as §1

[21] = system: NCI-H2228
Summary of the method: as §1

Q: For Cc1sc2c(c1C)C(c1ccc(Cl)cc1)=N[C@@H](CC(=O)OC(C)(C)C)c1nnc(C)n1-2 [JQ1] + Cc1cc(Nc2cc(N3CCN(C)CC3)nc(Sc3ccc(NC(=O)C4CC4)cc3)n2)n[nH]1 [Tozasertib] (partner 0.1 µM), which relative viability ([1]; first compound 0.04 µM) is on record?
A: 0.402

Q: What about the relative viability ([1]; first compound 0.4 µM) of the same compound?
A: 0.119

Q: What about the relative viability ([1]; first compound 1.265 µM) of the same compound?
A: 0.0684

Q: And the relative viability ([1]; first compound 4 µM)?
A: 0.0339

Q: What about the relative viability ([2]; first compound 0.04 µM) of the same compound?
A: 0.18

Q: What about the relative viability ([2]; first compound 0.1265 µM) of the same compound?
A: 0.192

Q: What about the relative viability ([2]; first compound 0.4 µM) of the same compound?
A: 0.195

Q: What about the relative viability ([2]; first compound 1.265 µM) of the same compound?
A: 0.151

Q: And the relative viability ([2]; first compound 4 µM)?
A: 0.166

Q: What about the relative viability ([3]; first compound 0.04 µM) of the same compound?
A: 0.277

Q: What about the relative viability ([3]; first compound 0.1265 µM) of the same compound?
A: 0.304

Q: And the relative viability ([3]; first compound 0.4 µM)?
A: 0.237

Q: What about the relative viability ([3]; first compound 1.265 µM) of the same compound?
A: 0.188

Q: What about the relative viability ([3]; first compound 4 µM) of the same compound?
A: 0.159

Q: And the relative viability ([4]; first compound 0.04 µM)?
A: 0.355

Q: And the relative viability ([4]; first compound 0.1265 µM)?
A: 0.316

Q: And the relative viability ([4]; first compound 0.4 µM)?
A: 0.282

Q: What about the relative viability ([4]; first compound 1.265 µM) of the same compound?
A: 0.185

Q: What about the relative viability ([4]; first compound 4 µM) of the same compound?
A: 0.226

Q: And the relative viability ([5]; first compound 0.04 µM)?
A: 0.539

Q: And the relative viability ([5]; first compound 0.1265 µM)?
A: 0.554

Q: What about the relative viability ([5]; first compound 0.4 µM) of the same compound?
A: 0.489

Q: And the relative viability ([5]; first compound 1.265 µM)?
A: 0.308

Q: And the relative viability ([5]; first compound 4 µM)?
A: 0.237

Q: And the relative viability ([6]; first compound 0.04 µM)?
A: 0.217

Q: And the relative viability ([6]; first compound 0.1265 µM)?
A: 0.148

Q: What about the relative viability ([6]; first compound 0.4 µM) of the same compound?
A: 0.154

Q: What about the relative viability ([6]; first compound 1.265 µM) of the same compound?
A: 0.11

Q: What about the relative viability ([6]; first compound 4 µM) of the same compound?
A: 0.109

Q: What about the relative viability ([7]; first compound 0.04 µM) of the same compound?
A: 0.593

Q: What about the relative viability ([7]; first compound 0.1265 µM) of the same compound?
A: 0.385

Q: And the relative viability ([7]; first compound 0.4 µM)?
A: 0.314

Q: What about the relative viability ([7]; first compound 1.265 µM) of the same compound?
A: 0.125

Q: And the relative viability ([7]; first compound 4 µM)?
A: 0.0518

Q: And the relative viability ([8]; first compound 0.04 µM)?
A: 0.195

Q: And the relative viability ([8]; first compound 0.1265 µM)?
A: 0.188

Q: What about the relative viability ([8]; first compound 0.4 µM) of the same compound?
A: 0.173

Q: What about the relative viability ([8]; first compound 1.265 µM) of the same compound?
A: 0.131

Q: What about the relative viability ([8]; first compound 4 µM) of the same compound?
A: 0.125

Q: What about the relative viability ([9]; first compound 0.04 µM) of the same compound?
A: 0.647

Q: And the relative viability ([9]; first compound 0.1265 µM)?
A: 0.641

Q: What about the relative viability ([9]; first compound 0.4 µM) of the same compound?
A: 0.421

Q: And the relative viability ([9]; first compound 1.265 µM)?
A: 0.297

Q: And the relative viability ([9]; first compound 4 µM)?
A: 0.227

Q: And the relative viability ([10]; first compound 0.04 µM)?
A: 0.182

Q: What about the relative viability ([10]; first compound 0.1265 µM) of the same compound?
A: 0.137

Q: What about the relative viability ([10]; first compound 0.4 µM) of the same compound?
A: 0.181

Q: What about the relative viability ([10]; first compound 1.265 µM) of the same compound?
A: 0.141

Q: What about the relative viability ([10]; first compound 4 µM) of the same compound?
A: 0.16

Q: And the relative viability ([11]; first compound 0.04 µM)?
A: 0.429

Q: And the relative viability ([11]; first compound 0.1265 µM)?
A: 0.384

Q: And the relative viability ([11]; first compound 0.4 µM)?
A: 0.288

Q: What about the relative viability ([11]; first compound 1.265 µM) of the same compound?
A: 0.289

Q: And the relative viability ([11]; first compound 4 µM)?
A: 0.171

Q: What about the relative viability ([12]; first compound 0.04 µM) of the same compound?
A: 0.822

Q: And the relative viability ([12]; first compound 0.1265 µM)?
A: 0.643

Q: What about the relative viability ([12]; first compound 0.4 µM) of the same compound?
A: 0.72

Q: And the relative viability ([12]; first compound 1.265 µM)?
A: 0.237

Q: What about the relative viability ([12]; first compound 4 µM) of the same compound?
A: 0.225

Q: And the relative viability ([13]; first compound 0.04 µM)?
A: 0.197

Q: And the relative viability ([13]; first compound 0.1265 µM)?
A: 0.223

Q: What about the relative viability ([13]; first compound 0.4 µM) of the same compound?
A: 0.171

Q: What about the relative viability ([13]; first compound 1.265 µM) of the same compound?
A: 0.116

Q: What about the relative viability ([13]; first compound 4 µM) of the same compound?
A: 0.146

Q: What about the relative viability ([14]; first compound 0.04 µM) of the same compound?
A: 0.971

Q: What about the relative viability ([14]; first compound 0.1265 µM) of the same compound?
A: 0.651

Q: What about the relative viability ([14]; first compound 0.4 µM) of the same compound?
A: 0.613

Q: What about the relative viability ([14]; first compound 1.265 µM) of the same compound?
A: 0.566

Q: What about the relative viability ([14]; first compound 4 µM) of the same compound?
A: 0.383

Q: What about the relative viability ([15]; first compound 0.04 µM) of the same compound?
A: 0.65

Q: What about the relative viability ([15]; first compound 0.1265 µM) of the same compound?
A: 0.625

Q: What about the relative viability ([15]; first compound 0.4 µM) of the same compound?
A: 0.64

Q: And the relative viability ([15]; first compound 1.265 µM)?
A: 0.426

Q: What about the relative viability ([15]; first compound 4 µM) of the same compound?
A: 0.204

Q: And the relative viability ([16]; first compound 0.04 µM)?
A: 0.45

Q: What about the relative viability ([16]; first compound 0.1265 µM) of the same compound?
A: 0.351

Q: And the relative viability ([16]; first compound 0.4 µM)?
A: 0.351

Q: What about the relative viability ([16]; first compound 1.265 µM) of the same compound?
A: 0.297

Q: And the relative viability ([16]; first compound 4 µM)?
A: 0.232

Q: What about the relative viability ([17]; first compound 0.04 µM) of the same compound?
A: 0.355

Q: And the relative viability ([17]; first compound 0.1265 µM)?
A: 0.289

Q: What about the relative viability ([17]; first compound 0.4 µM) of the same compound?
A: 0.284

Q: And the relative viability ([17]; first compound 1.265 µM)?
A: 0.124

Q: And the relative viability ([17]; first compound 4 µM)?
A: 0.135

Q: And the relative viability ([18]; first compound 0.04 µM)?
A: 0.263

Q: And the relative viability ([18]; first compound 0.1265 µM)?
A: 0.253

Q: What about the relative viability ([18]; first compound 0.4 µM) of the same compound?
A: 0.279

Q: What about the relative viability ([18]; first compound 1.265 µM) of the same compound?
A: 0.147

Q: And the relative viability ([18]; first compound 4 µM)?
A: 0.138

Q: What about the relative viability ([19]; first compound 0.04 µM) of the same compound?
A: 0.714

Q: What about the relative viability ([19]; first compound 0.1265 µM) of the same compound?
A: 0.516

Q: And the relative viability ([19]; first compound 0.4 µM)?
A: 0.459

Q: And the relative viability ([19]; first compound 1.265 µM)?
A: 0.397

Q: And the relative viability ([19]; first compound 4 µM)?
A: 0.387

Q: What about the relative viability ([20]; first compound 0.04 µM) of the same compound?
A: 0.888

Q: What about the relative viability ([20]; first compound 0.1265 µM) of the same compound?
A: 0.345

Q: And the relative viability ([20]; first compound 0.4 µM)?
A: 0.326

Q: What about the relative viability ([20]; first compound 1.265 µM) of the same compound?
A: 0.286

Q: What about the relative viability ([20]; first compound 4 µM) of the same compound?
A: 0.136

Q: And the relative viability ([21]; first compound 0.04 µM)?
A: 0.286

Q: What about the relative viability ([21]; first compound 0.1265 µM) of the same compound?
A: 0.284

Q: What about the relative viability ([21]; first compound 0.4 µM) of the same compound?
A: 0.207

Q: What about the relative viability ([21]; first compound 1.265 µM) of the same compound?
A: 0.126

Q: What about the relative viability ([21]; first compound 4 µM) of the same compound?
A: 0.08

Reference: the supplement of paper PMC10307832
